Data set [1] can be described thus: pKa. The format is physicochemical. On the procedure: (§1) CH-j is pKa 5.3, log P 1.63 in Octanol/Water at 37° C. […] (BA-j 77m/ml). CH-j belongs to BCS II (low solubility, high permeability) and solubility presents the pH dependence. […] CH-j is a pH dependent fast release. […] It is speculated that CH-j has more appropriate log P and solubility with more likely entering tissue cells than others solubility acetyl Chrysin Mannich base derivatives.
(§2) (about 20 times BA-f 277 μg/ml) and 564 μg/ml in water at 37° C. (about 1000 times BA-f 0.53m/ml). CH-f is BCS I (high solubility and permeability) and solubility presents the pH dependence. It is speculated that CH-f has more appropriate log P and solubility with entering systemic (blood system and tissue cells) than others solubility acetyl Chrysin Mannich base derivatives.

Data set [2] concerns MCF-7 and COS-7. The experiment in a line: .OH level, CCy-OH fluorescent probe imaging. To be noted: 12.5 μM for 5 h. The format is cell-based.
In data set [3] the test system is MCF-7. The experiment in a line: Hoechst 33258 fluorescence staining, apoptosis. The format is cell-based. To be noted: 0, 5, 10, 20 μM for 24 h. On the procedure:
Hoechst 33258 is an active fluorescent dye with DNA specific binding, which is mainly combined with base area of DNA, which emits blue fluorescence when stimulated by ultraviolet light. The living cells emit uniform fluorescence, the apoptotic cells are bright blue fluorescence due to their chromatin fixation, dense and concentrated nuclei.
MCF-7 was treated with 0, 5, 10, 20 μM of CH-f and CH-j for 24 h, Hoechst 33258 fluorescence staining, and cell morphological changes were shown in FIG. 3-1. […] CH-f and CH-j are completely different from the cytotoxic drug HCPT, which appears to be apoptotic at low doses and necrotic at high doses in BGC-823.
FIG. 3-1 Hoechst 33258 staining results for MCF-7.

Data set [4] relates to PBMCs, activated lymphocytes, human normal Liver cells. The experiment in a line: H2O2 level in blood and normal cells, PF1-H2O2 fluorescent probe. As to conditions: CH-j: PBMCs and activated lymphocytes; BA-j: activated lymphocyte. The format is cell-based. As for the experimental part: The cells are cancer cells (MCF-7, GBC-823, Hep G2) and normal cells (Liver, COS-7, PBMCs). According to the literature [Scientific Reports, 2015, 5: 13626; Anti-cancer Agents in Medicinal Chemistry, 2016, 16: 914-924.], in vitro cultured cells was given to CH-j 25 μM for 3.5 h, added PF1-H2O2 selective fluorescence probe 10 μM for 0.5 h and detected the concentration of H2O2 in cells, and performed fluorescence imaging by results shown in FIG. 1.
FIG. 1-3, FIG. 1-4, The fluorescence imaging by PF1-H2O2 10 μM is that CH-j […] for 4 h affected the level of H2O2 in MCF-7, GBC-823, Hep G2 and Liver.
FIG. 1-3: CH-j/BA-j affects the levels of H2O2 in blood cells, X-coordinate is the concentration of CH-j/BA-j concentration (μM), and Y-coordinate the intracellular levels of H2O2 (μM) for 4 h with PF1-H2O2 10 μM by Fluorescence Microplater Reader (488 nm/525 nm).

The test system of data set [5] is BGC-823. The experiment in a line: Annexin V-FITC-PI double fluorescence, apoptosis and necrosis. Type of data set: cell-based. To be noted: 24 h. From the text:
There is a series of morphological characteristic changes in the apoptosis of cells, in which the change of the plasma membrane is one of the characteristics of early apoptosis. The cytoplasm is flipped from the inside of the cytoplasm to the outer surface of the cell when the cell apoptosis, Annexin V is a Ca^++ dependent phospholipid binding protein, which has a high affinity with phospholipid-peptide-serine, which can be combined with the phospholipid peptide specificity that is exposed to the extracellular cells. However, cytoplasm transfer to cell membrane is not unique to apoptosis, but also can occur in cell necrosis. The difference between the two cell death modes is that the cell membrane is intact in the initial stage of apoptosis, and the integrity of the cell membrane in its early stage is destroyed. PI is a nucleic acid dye that cannot pass through the intact cell membrane, but in the cell and necrotic cells in the middle and late stage of apoptosis, the PI can dye the nucleus through the cell membrane. Annexin V-FITC-PI was used to detect apoptosis and necrotic cell ratio on flow cytometry.
A relatively small increase in apoptotic cells is increased.
FIG. 3-3 Annexin V-FITC/PI staining results for BGC-823.

Data set [6] is described as follows: Solubility in Octanol, water and pH media. Type of data set: physicochemical. As for the experimental part:
The solubility and log P of acetyl ChrysinMannich base derivatives see TABLE 1.
as §1, §2

For data set [7], the system named is Hep G2. The experiment in a line: NaOCl level, BODTPY-OCl fluorescent probe imaging. Type of data set: cell-based. To be noted: CH-j 40 μM or HCPT 5 μM for 4 h. On the procedure: In vitro cultured Hep G2 was given by BODTPY-OCl selective fluorescent probe 5 μM for 0.5 h, added CH-j 40 μM or HCPT 5 μM for 4 h, and performed fluorescence imaging.
Data set [8] relates to caspase-3, 8, 9. The experiment in a line: Caspase activity in BGC-823. The format is cell-based. To be noted: range of 0-10 μM, 24 h. From the text:
Caspase is a series of cysteinyl aspartate specific proteinase in the cytoplasm of protease with closely related to cell apoptosis, and participate in cell growth, differentiation and apoptosis regulation. Caspase is same key enzymes in apoptosis process and in the apoptosis of the mediated cells, there are almost all apoptotic signaling pathways involved in the pathway of caspase. […] Caspase-8 is an early starter for the induction of apoptosis, and the caspase-3 is the late executor. Pro-caspase-9 is dissociation with phosphorylation surviving, and inhibiting cell apoptosis and promoting division. Pro-caspase-9 by H2O2 is oxidized into caspase-9-S—S-caspase-9 with inhibiting cell division and inducing apoptosis. H2O2 can directly oxidize and activate caspase, hydrolyze antiapoptotic protein Bcl-2 and Bcl-xl substrate, so selectively induce apoptosis of cancer cells and reduce the damage of normal cells.
FIG. 3-4: caspases: X-coordinate is CH-j concentration (μM) and Y-coordinate the activity of caspase (%) for BGC-823.

For data set [9], the system named is plasma proteins. The experiment in a line: Protein binding rate and reversible binding rate. The format is in vitro ADME. As for the experimental part: (§3) The combination of drugs and plasma proteins is usually reversible, and the affinity strength is determined by the reversible binding rate of the drug-protein complex. Only free drugs can spread to the tissue through the lipid membrane. By modifying the structure of the drug, the effect of the drug on the target site can be improved by improving the reversible binding rate of the drug-protein complex.
(§4) The acidic part of polyphenol hydroxyl group is combined with lysine alkaline site in albumin structure. The protein binding rate and reversible binding rate of CH-j see TABLE 2.

The nature of data set [10]: Protein binding rate and reversible binding rate. Type of data set: in vitro ADME. To be noted: plasma proteins. On the procedure:
as §3, §4

In brackets after ≈: the same amount, converted by molar mass. Read-outs that look alike come from different tables or passages of the source.

By pKa is commonly meant the negative logarithm of the acid dissociation constant. A word on the solubility: it is the dissolved amount per volume that the medium holds.

The compound `CC(=O)c1c(O)c(CN2CCC(O)CC2)c2oc(-c3ccccc3)cc(=O)c2c1O` [CH-j, 6-Acetyl-5,7-dihydroxy-8-(4-hydroxy-piperidin-1-ylmethyl)-2-phenyl-chromen-4-one] gave a pKa in [1] of 5.3. Moreover, in data set [2], the “Level of .OH, red fluorescence” value was “present red fluorescence in MCF-7 and no in COS-7”. In addition, the “Apoptosis by Hoechst 33258 staining” value in [3] is “apoptosis cell percentage in dose dependent increase”. The “Dose dependence of H2O2 level” value in data set [4] is reported as “no significant dose-dependent manner”. In addition, in data set [5], the “Apoptosis and necrosis by Annexin V-FITC-PI” value is reported as “induce apoptosis the BGC-823 with obvious dose-dependent manner”. Moreover, the BCS class result in data set [6] is recorded as “BCS II”. Also, the “Solubility in Octanol relative to BA analogue” value in data set [6] (CH-j vs BA-j, CH-f vs BA-f, 37° C.) is “about 6 times”. Also, the solubility in data set [6] (organic solvent or mixture, Octanol, 37° C., read-out: Solubility in Octanol) is 2420 µg/mL (≈ 5910 µM); in data set [6] (pH 1.2, simulated gastric fluid, 0.1M HCl (pH1.2), 37° C., read-out: Solubility), 574 µg/mL (≈ 1400 µM); in data set [6] (pH 4.5, aqueous buffer, 0.05M NaAC-HAC buffered solution (pH4.5), 37° C., read-out: Solubility), 528 µg/mL (≈ 1290 µM); in data set [6] (pH 6.8, aqueous buffer, PBS (pH6.8), 37° C., read-out: Solubility), 78 µg/mL (≈ 191 µM); in [6] (water, 37° C., read-out: Solubility in H2O) it was 56 µg/mL (≈ 137 µM). Moreover, the “NaOCl, yellow green fluorescence” value in data set [7] is reported as “not present yellow green fluorescence”. Besides, in data set [8], the “Activation of caspase-3, 8, 9” value is reported as “activated caspase-3, 8, 9 both in a dose-dependent upward trend”. The “Reversie binding rate AV” value in data set [9] (average of 3 concentrations) was 90.0%. In addition, the Reversie binding rate is reported as 90.3% in data set [9] (drug concentration 12.5 μg/ml), 89.6% in data set [9] (drug concentration 25 μg/ml) and 90.1% in [9] (drug concentration 50 μg/ml). The fraction unbound in [10] (average of 3 concentrations, read-out: Protein binding rate AV (converted)) is 0.14. Also, in data set [10] (drug concentration 12.5 μg/ml), the fraction unbound at 12.5 μg/ml was 0.114. Moreover, the fraction unbound at 25 μg/ml in [10] (drug concentration 25 μg/ml) is 0.156. Also, the fraction unbound at 50 μg/ml in [10] (drug concentration 50 μg/ml) was 0.151.

The record behind these values is patent publication US10471054B2, “CDK1 inhibitors of acetyl chrysin mannich base derivatives, synthesis and use thereof” (priority 2016, dated 2019).
